Results taken from ChEMBL document CHEMBL1135158, “Pyrrolo[2,3-d]pyrimidines containing diverse N-7 substituents as potent inhibitors of Lck” (Bioorg Med Chem Lett, 2002).

Tests used:
Angiopoietin-1 receptor [1] = molecular target: T1, Angiopoietin-1 receptor (Homo sapiens, UniProt Q02763)
[2] = molecular target: T2, Tyrosine-protein kinase CSK (Homo sapiens, UniProt P41240); test: Inhibition of human Csk tyrosine kinase
[3] = molecular target: Tyrosine-protein kinase Lck (Homo sapiens, UniProt P06239); test: Inhibition of human p56 Lck tyrosine kinase (lck64-509)
Angiopoietin-1 receptor [4] = molecular target: T1, Angiopoietin-1 receptor; test: Inhibition of TIE-2 kinase.
[5] = molecular target: Tyrosine-protein kinase Blk (Homo sapiens, UniProt P51451); test: Inhibition of human B lymphoid tyrosine kinase
[6] = molecular target: Tyrosine-protein kinase Fyn (Homo sapiens, UniProt P06241); test: Inhibition of human p55 Fyn tyrosine kinase.
[7] = molecular target: Proto-oncogene tyrosine-protein kinase Src (Homo sapiens, UniProt P12931)
Description: Inhibition of Src protein tyrosine kinase

[8] = molecular target: Tyrosine-protein kinase Lyn (Homo sapiens, UniProt P07948); test: Inhibition of human p56 Lyn tyrosine kinase
[9] = Bioavailability was determined after intravenous administration at a dose 5 mg/kg to male Sprague-Dawley rats; assay type: ADME, organism-based; conditions: rat, in vivo
[10] = molecular target: T2, Tyrosine-protein kinase CSK; test: Inhibition of human Tyrosine-protein kinase CSK
Homo sapiens = species: Homo sapiens; test: Inhibition of IL-2 production in whole blood assay; assay type: functional
Mus musculus [11] = test: Effective dose was evaluated in vivo for the inhibition of IFN-gamma production for 3 days peroral administration of the compound; assay type: functional; conditions: po, 72 h
[12] = Area under curve was determined after oral administration at a dose 10 mg/kg to male Sprague-Dawley rats; assay type: ADME, organism-based; parameters: dose 10 mg/kg, route oral; conditions: rat, in vivo
[13] = Volume of distribution was determined after intravenous administration at a dose 5 mg/kg to male Sprague-Dawley rats; assay type: ADME, organism-based; parameters: dose 5 mg/kg, route intravenous; conditions: rat, in vivo, read-out: Vz
[14] = Maximum plasma concentration was determined after oral administration at a dose 10 mg/kg to male Sprague-Dawley rats; assay type: ADME, organism-based; parameters: dose 10 mg/kg, route oral; conditions: rat
[15] = Half life period was determined after intravenous administration at a dose 5 mg/kg to male Sprague-Dawley rats; assay type: ADME, organism-based; parameters: dose 5 mg/kg, route intravenous; conditions: rat, in vivo
[16] = Maximum time constant was determined after oral administration at a dose 10 mg/kg to male Sprague-Dawley rats; assay type: ADME, organism-based; parameters: dose 10 mg/kg, route oral; conditions: rat, in vivo
Jurkat = test: Inhibition of IL-2 production in anti-CD3 stimulated Jurkat cells; assay type: functional, cell-based; conditions: Homo sapiens
[17] = Clearance was determined after intravenous administration at a dose 5 mg/kg to male Sprague-Dawley rats; assay type: ADME, organism-based; parameters: dose 5 mg/kg, route intravenous; conditions: rat, in vivo
[18] = molecular target: Platelet-derived growth factor receptor (Homo sapiens, UniProt P09619+P16234); test: Inhibition of Platelet-derived growth factor receptor (Inactive at 1 mM ATP); assay type: protein-complex assay
Angiopoietin-1 receptor [19] = molecular target: T1, Angiopoietin-1 receptor; test: Inhibition of TIE-2 kinase
Mus musculus [20] = test: Compound was evaluated for inhibition of interleukin - 2 (IL-2) production in anti -CD3 mAb stimulation in mice after oral administration; assay type: functional
[21] = molecular target: Vascular endothelial growth factor receptor 2 (Homo sapiens, UniProt P35968); test: Inhibition of Vascular endothelial growth factor receptor 2
Mus musculus [22] = test: Compound was evaluated for inhibition of interleukin - 2 (IL-2) production in anti -CD3 mAb stimulation in mice after intraperitoneal administration; assay type: functional; conditions: ip
[23] = Compound was evaluated for the pharmacokinetic parameter, area under curve; assay type: ADME, organism-based; conditions: mouse, in vivo
[24] = Compound was evaluated for the pharmacokinetic parameter, maximum plasma concentration; assay type: ADME, organism-based; conditions: mouse
[25] = Compound was evaluated for the pharmacokinetic parameter, Terminal half life period; assay type: ADME, organism-based; conditions: mouse, in vivo
[26] = Compound was evaluated for the pharmacokinetic parameter, maximum time constant; assay type: ADME, organism-based; conditions: mouse, in vivo
Mus musculus [27] = test: Compound was evaluated for the inhibition of TCR stimulated (anti-CD3 mAb) IL-2 production in mice following oral administration; assay type: functional

T1 sequence (Q02763 whole entry): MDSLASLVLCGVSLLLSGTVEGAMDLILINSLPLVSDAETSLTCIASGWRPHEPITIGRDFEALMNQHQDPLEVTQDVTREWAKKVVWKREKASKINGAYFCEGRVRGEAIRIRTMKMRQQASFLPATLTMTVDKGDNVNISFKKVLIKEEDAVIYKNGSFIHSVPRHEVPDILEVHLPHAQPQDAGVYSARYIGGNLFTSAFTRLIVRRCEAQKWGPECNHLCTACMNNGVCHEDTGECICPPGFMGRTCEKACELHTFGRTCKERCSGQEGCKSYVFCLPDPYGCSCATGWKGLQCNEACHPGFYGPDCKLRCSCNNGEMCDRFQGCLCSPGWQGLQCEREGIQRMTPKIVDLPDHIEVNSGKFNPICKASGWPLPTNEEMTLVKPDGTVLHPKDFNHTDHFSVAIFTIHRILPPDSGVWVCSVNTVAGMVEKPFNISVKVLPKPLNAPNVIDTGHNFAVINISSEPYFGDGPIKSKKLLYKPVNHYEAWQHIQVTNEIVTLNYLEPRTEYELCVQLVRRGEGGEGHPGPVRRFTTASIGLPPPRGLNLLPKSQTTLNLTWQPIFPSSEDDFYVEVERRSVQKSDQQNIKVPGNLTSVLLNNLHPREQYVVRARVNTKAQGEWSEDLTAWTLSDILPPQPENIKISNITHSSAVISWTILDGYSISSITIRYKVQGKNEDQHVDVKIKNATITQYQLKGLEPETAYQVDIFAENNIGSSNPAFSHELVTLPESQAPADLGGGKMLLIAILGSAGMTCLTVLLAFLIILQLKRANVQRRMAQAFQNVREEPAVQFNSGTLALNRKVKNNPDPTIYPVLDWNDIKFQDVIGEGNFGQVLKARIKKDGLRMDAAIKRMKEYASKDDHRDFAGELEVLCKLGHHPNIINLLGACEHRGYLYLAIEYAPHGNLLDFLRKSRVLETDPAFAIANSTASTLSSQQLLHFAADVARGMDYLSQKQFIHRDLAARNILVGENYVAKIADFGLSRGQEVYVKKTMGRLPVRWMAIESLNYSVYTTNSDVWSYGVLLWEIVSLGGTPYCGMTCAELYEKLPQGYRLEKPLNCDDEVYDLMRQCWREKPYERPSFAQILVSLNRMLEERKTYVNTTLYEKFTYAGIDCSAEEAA
Sequence of Tyrosine-protein kinase Lck (P06239 whole entry): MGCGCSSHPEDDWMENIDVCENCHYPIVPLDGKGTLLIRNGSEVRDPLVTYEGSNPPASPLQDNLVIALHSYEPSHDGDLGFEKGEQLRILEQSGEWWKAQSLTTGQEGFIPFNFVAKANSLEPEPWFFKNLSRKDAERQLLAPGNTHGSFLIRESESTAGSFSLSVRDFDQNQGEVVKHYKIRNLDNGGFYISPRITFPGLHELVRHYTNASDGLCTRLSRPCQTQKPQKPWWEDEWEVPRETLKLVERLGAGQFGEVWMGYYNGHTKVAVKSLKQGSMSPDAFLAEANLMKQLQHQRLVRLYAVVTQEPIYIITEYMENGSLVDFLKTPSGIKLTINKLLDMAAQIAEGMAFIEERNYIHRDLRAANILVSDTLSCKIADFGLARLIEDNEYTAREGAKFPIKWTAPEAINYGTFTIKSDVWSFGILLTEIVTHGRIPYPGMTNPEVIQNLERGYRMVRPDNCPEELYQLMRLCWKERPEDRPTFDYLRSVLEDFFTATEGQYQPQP
Sequence of Proto-oncogene tyrosine-protein kinase Src (P12931 2-536 limits assumed): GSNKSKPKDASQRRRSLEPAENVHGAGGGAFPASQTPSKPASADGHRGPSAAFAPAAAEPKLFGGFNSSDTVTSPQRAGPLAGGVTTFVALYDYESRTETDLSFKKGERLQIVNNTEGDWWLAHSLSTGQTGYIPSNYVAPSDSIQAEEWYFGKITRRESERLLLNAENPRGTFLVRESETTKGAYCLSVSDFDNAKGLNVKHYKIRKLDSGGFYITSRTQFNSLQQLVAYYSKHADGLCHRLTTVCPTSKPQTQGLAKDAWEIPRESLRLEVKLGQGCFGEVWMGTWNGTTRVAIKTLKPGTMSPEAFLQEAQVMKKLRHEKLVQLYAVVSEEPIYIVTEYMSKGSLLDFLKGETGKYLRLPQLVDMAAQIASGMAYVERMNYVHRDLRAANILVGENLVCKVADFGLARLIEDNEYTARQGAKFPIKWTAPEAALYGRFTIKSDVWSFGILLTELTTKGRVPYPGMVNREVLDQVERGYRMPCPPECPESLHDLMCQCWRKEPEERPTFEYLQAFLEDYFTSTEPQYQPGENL
Sequence of Tyrosine-protein kinase Fyn (P06241 whole entry): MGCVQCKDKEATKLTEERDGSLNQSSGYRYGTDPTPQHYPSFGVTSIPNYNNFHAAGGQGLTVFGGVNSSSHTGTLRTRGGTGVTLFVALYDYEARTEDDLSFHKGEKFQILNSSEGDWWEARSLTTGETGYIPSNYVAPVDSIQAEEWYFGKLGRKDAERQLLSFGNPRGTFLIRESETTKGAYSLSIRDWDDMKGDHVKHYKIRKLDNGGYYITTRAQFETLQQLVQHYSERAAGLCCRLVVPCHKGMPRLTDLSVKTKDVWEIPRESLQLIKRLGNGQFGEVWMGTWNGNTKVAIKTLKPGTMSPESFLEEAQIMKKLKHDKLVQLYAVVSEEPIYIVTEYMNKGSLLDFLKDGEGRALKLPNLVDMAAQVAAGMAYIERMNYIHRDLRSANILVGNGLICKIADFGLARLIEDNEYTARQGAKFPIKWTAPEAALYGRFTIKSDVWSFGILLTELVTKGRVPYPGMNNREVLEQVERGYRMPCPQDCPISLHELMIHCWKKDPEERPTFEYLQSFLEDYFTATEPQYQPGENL
Sequence of Tyrosine-protein kinase Blk (P51451 whole entry): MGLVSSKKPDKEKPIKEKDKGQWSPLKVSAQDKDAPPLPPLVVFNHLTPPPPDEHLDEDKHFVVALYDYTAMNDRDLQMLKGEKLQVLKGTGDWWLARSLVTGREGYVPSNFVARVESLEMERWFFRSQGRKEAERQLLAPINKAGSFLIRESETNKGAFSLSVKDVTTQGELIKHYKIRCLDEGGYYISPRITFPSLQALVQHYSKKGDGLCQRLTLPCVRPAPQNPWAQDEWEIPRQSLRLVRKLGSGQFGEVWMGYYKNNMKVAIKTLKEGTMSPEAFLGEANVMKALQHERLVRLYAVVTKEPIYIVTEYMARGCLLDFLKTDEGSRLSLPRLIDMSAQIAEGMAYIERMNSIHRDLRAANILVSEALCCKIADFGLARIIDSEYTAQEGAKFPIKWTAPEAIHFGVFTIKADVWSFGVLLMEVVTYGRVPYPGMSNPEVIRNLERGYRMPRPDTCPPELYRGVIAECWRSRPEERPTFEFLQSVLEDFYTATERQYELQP
T2 sequence (P41240 whole entry): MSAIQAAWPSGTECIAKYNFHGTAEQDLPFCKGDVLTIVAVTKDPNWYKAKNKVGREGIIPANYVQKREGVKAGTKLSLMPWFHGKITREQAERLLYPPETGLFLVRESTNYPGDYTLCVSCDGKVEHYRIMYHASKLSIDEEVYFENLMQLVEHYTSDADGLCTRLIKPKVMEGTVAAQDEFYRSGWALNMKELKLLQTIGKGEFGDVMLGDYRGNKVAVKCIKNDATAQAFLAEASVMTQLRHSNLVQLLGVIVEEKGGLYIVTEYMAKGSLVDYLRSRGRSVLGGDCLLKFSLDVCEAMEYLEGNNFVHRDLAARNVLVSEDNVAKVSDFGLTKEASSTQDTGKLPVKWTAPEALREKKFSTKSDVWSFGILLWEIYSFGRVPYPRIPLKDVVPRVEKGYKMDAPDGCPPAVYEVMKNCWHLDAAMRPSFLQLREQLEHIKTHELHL
Sequence of Tyrosine-protein kinase Lyn (P07948 whole entry): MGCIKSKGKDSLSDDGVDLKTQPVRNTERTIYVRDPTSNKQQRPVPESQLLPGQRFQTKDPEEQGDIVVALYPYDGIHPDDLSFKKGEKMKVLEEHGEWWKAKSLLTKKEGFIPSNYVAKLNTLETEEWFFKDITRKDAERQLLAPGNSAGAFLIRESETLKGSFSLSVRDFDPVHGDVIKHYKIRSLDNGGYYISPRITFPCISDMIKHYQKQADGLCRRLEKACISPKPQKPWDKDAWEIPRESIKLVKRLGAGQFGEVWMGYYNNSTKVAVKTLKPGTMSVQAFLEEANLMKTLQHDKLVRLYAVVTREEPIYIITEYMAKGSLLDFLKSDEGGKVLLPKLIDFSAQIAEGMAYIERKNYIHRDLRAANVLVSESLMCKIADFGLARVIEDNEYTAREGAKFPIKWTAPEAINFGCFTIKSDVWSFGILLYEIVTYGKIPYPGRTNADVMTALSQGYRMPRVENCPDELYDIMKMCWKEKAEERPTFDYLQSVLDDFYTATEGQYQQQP

With `NCCn1cc(-c2ccc(Oc3ccccc3)cc2)c2c(N)ncnc21` as the compound, how does the IC50 (Angiopoietin-1 receptor [1]) read?
The IC50 was over 50000 nM.

For `CN1CCN([C@H]2CC[C@H](n3cc(-c4ccc(Oc5ccccc5)cc4)c4c(N)ncnc43)CC2)CC1`, which IC50 [2] is on record?
The IC50 was 4270 nM.

What about the IC50 [3] of the same compound?
Its IC50 is 240 nM.

And the IC50 (Angiopoietin-1 receptor [4])?
The IC50 was 5850 nM.

And the IC50 [5]?
The IC50 was 370 nM.

And the IC50 [6]?
The IC50 was 2030 nM.

What about the IC50 [7] of the same compound?
The IC50 was 1190 nM.

What about the IC50 [8] of the same compound?
The IC50 was 430 nM.

With `CN1CCN([C@H]2CC[C@@H](n3cc(-c4ccc(Oc5ccccc5)cc4)c4c(N)ncnc43)CC2)CC1` as the compound, how does the bioavailability [9] read?
The bioavailability was 54%.

And the IC50 [10]?
Its IC50 is 41 nM.

What about the IC50 (Homo sapiens) of the same compound?
Its IC50 is 70 nM.

What about the IC50 [3] of the same compound?
The IC50 was 15 nM.

And the ED50 (Mus musculus [11])?
Its ED50 is 2.2 mg/kg.

And the AUC [12]?
Its AUC is 661 ng·h/mL.

And the Vd [13]?
The Vd was 140 L/kg.

What about the Cmax [14] of the same compound?
The Cmax was 113 nM.

And the half-life [15]?
The half-life was 14.3 h.

And the Tmax [16]?
Its Tmax is 4 h.

What about the IC50 (Angiopoietin-1 receptor [1]) of the same compound?
Its IC50 is 250 nM.

And the IC50 (Jurkat)?
The IC50 was 25 nM.

What about the clearance [17] of the same compound?
The clearance was 88.3 mL/min/kg.

And the IC50 [5]?
Its IC50 is 46 nM.

And the IC50 [18]?
The IC50 was over 20000 nM.

What about the IC50 [6] of the same compound?
Its IC50 is 59 nM.

What about the IC50 [7] of the same compound?
The IC50 was 42 nM.

What about the IC50 [8] of the same compound?
The IC50 was 29 nM.

What does the source list for `Nc1ncnc2c1c(-c1ccc(Oc3ccccc3)cc1)cn2C1CCCC1`?
IC50 (Angiopoietin-1 receptor [19]): 9070 nM; ED50 (Mus musculus [20]): 25 mg/kg; IC50 [21]: 4440 nM; IC50 [3]: 100 nM; ED50 (Mus musculus [22]): 4 mg/kg; AUC [23]: 34.3 ng·h/mL; Cmax [24]: 28 nM; IC50 [7]: 560 nM; half-life [25]: 7.7 h; Tmax [26]: 0.25 h

Which ED50 (Mus musculus [27]) does the source give for `CN1CCN([C@H]2CC[C@@H](n3cc(-c4ccc(Oc5ccccc5)cc4)c4c(N)ncnc43)CC2)CC1.O=C(O)/C=C\C(=O)O` here?
Its ED50 is 2.5 mg/kg.
